Laboratory results published in ChEMBL document CHEMBL1135366, “An N1-hydrogen bonding model for flavin coenzyme” (Bioorg Med Chem Lett, 2002).

Tests used:
[1] = Reaction constant k1 value for sulfite (100 mM) addition at pH 7.4 phosphate buffer at 30 degrees C
[2] = Reaction constant k1 value for the oxidation of the 1-benzyl-dihydronicotinamide in 100 mM, pH 7.4 phosphate buffer at 15 degrees C
[3] = Reaction constant k1 value for the oxidation of the 1-benzyl-dihydronicotinamide in 100 mM, pH 7.4 phosphate buffer at 30 degrees C
[4] = Reaction constant k-1 value for sulfite (100 mM) addition at pH 7.4 phosphate buffer at 30 degrees C
[5] = Dissociation constant value was determined

Compound	K1 [1] [M⁻¹ s⁻¹]	K1 [2] [M⁻¹ s⁻¹]	K1 [3] [M⁻¹ s⁻¹]	K-1 [4] [min⁻¹]	Kd [5] [mM]
O=c1nc2n3c4c(cccc4nc-2c(=O)[nH]1)CCC3CO (configuration not stated)	0.00822	10.8	24.9	0.183	371
O=c1nc2n3c4c(cccc4nc-2c(=O)[nH]1)CCC3	0.00738	10.2	25.7	0.651	1470
Cn1c2nc(=O)[nH]c(=O)c-2nc2ccccc21	–	15.5	42.9	–	–
